Test results reported in US20250205188A1, “TREATMENT OR PREVENTION OF RESPIRATORY DISEASES CHARACTERISED BY, OR INVOLVING, LUNG FIBROSIS” (IMPERIAL COLLEGE INNOVATIONS LIMITED, priority 2022, published 2025).

Columns and labels:
[1] = test system: Human lung fibroblast cells; assay: RT-PCR gene expression in TGFβ fibrosis model of human lung fibroblast cells; format: cell-based; conditions: 10 mM for 1 hour, then 2 ng/mL TGFβ 24 hours, relative to untreated cells; for gene expression of Col1α1: FIG. 2A; for gene expression of FN1: FIG. 2B; for gene expression of CTGF: FIG. 2C
Excerpt: Primary human lung fibroblasts were isolated from lung resections of patients undergoing lung cancer surgery or lung transplantation performed after informed consent as approved by an external Research Ethics Committee (REC 15/SC0101) according to Royal Brompton Hospital protocol (Royal Brompton & Harefield NHS Foundation Trust, 2016). Fibroblasts from healthy individuals were also purchased from Lonza (Lonza, Basel, Switzerland).
Real Time PCR After treatment, the supernatant liquid was removed from cell cultures and RLT buffer containing 1% beta-mercaptoethanol was added to each well and then was frozen for later analysis. RNA extraction of cells was performed using the RNeasy Plus Mini Kit (QIAGEN), according to the manufacturer's protocol. Samples were defrosted at room temperature and centrifuged. The homogenate was transferred onto RNeasy MinElute spin columns and purified. RNA was reverse-transcribed into cDNA using the High-Capacity cDNA Reverse Transcription Kit (ThermoFisher) according to the manufacturer's instructions. Real-time PCR was performed using fast-qPCR mastermix (QIAGEN) on a Viia-7 instrument (Applied Biosciences) with Taqman primers for human genes, namely acod1, cd163, fn1, IL-1β, mmp1, mmp9 using actb (Life Technologies) as housekeeping gene.
Fibroblasts are the principal effector cell during lung fibrosis and the main source of the excessive extracellular matrix deposition seen during the disease. To explore the anti-fibrotic properties of itaconate analogues in human fibroblast cells, qPCR experiments were undertaken. Human lung fibroblast cells were seeded (10,000 cells/well) in a 48-well plate and were incubated with ICL-PO, ICL-2, ICL-3, ICL-4, ICL-6, itaconate, dimethyl itaconate, sodium itaconate and dimethyl malonate for 1 hour, after which the supernatant liquid was removed. The healthy fibroblasts were then incubated with 2 ng/mL transforming growth factor beta (TGFβ) for 24 hours in order to mimic pulmonary fibrosis. TGFβ is activated in fibrotic diseases and plays a key role in mediating fibrotic tissue. After treatment, RNA extraction of the cells was performed and 10 μg RNA per sample was reverse transcribed into cDNA. RT-PCR was performed with TaqMan primers for Col1α1, connective tissue growth factor (CTGF) and fibronectin (FN1) human genes. The results are shown in FIG. 2—(A) Gene expression of COL1A1 relative to two housekeeping genes (bactin and Beta-2-Microglobulin-averaged to make a ‘pooled’ control); (B) Gene expression of FN1 relative to housekeeping gene; and (C) Gene expression of CTGF relative to housekeeping gene.

[2] = test system: Healthy primary human lung fibroblasts; assay: Seahorse glycolytic stress test (ECAR); format: cell-based; conditions: 0.1 mM, 1 mM and 10 mM for 1 hour, then with or without 2 ng/ml TGF-β1 24 hours; FIGS. 4 and 5
Method: Healthy primary human lung fibroblasts (10,000 per well) were seeded in a seahorse plate pre-coated with Cell Tak (BD Biosciences, Oxford, UK). After an overnight incubation, fibroblasts were treated with different itaconate analogues for 1 hour and they were subsequently incubated with or without 2 ng/ml TGF-β1 for 24 hours. XF medium (nonbuffered RPMI containing 2 mM glutamine, 1 mM pyruvate and 10 mM glucose, pH 7.4, Agilent, Santa Clara, USA) was used to measure Oxygen Consumption Rate (OCR) and Extracellular Acidification Rate (ECAR) with the XFp extracellular flux analyser. The Seahorse glycolytic Stress Test (Agilent, Santa Clara, USA) was utilized to measure OCR and ECAR at baseline. Healthy primary human lung fibroblasts (10,000 per well) were seeded in a seahorse plate pre-coated with Cell Tak (BD Biosciences, Oxford, UK). After an overnight incubation, fibroblasts were treated with different concentrations (0.1 mM, 1 mM and 10 mM) of the itaconate analogues, citraconate or mesaconate, for 1 hour and they were subsequently incubated with or without 2 ng/ml TGF-β1 for 24 hours. XF medium (nonbuffered RPMI containing 2 mM glutamine, 1 mM pyruvate and 10 mM glucose, pH 7.4, Agilent, Santa Clara, USA) was used to measure an Extracellular Acidification Rate (ECAR) with the XFp extracellular flux analyser for the citraconate assay (FIG. 4) or mesaconate assay (FIG. 5). […]

human lung fibroblasts = conditions: exogenous itaconate added to cultures; cited from earlier work
lung fibrosis in mice = conditions: inhaled (particularly oropharyngeal inhalation); cited from earlier work

For `C=C(CC(=O)O)C(=O)N(C)C` [ICL-2, Sodium 3-(dimethylcarbamovl)-3-methvlidenepropanoate], the “gene expression of Col1α1” value [1] was “decreased gene expression”, the “gene expression of FN1” value [1] was “decreased gene expression” and the “gene expression of CTGF” value [1] was “decreased gene expression”.

In the case of `C/C=C(\CC(=O)O)C(=O)O` [ICL-3, (2E)-2-ethylidenebutanedioic acid], the “gene expression of Col1α1” value [1] is reported as “decreased gene expression”, the “gene expression of FN1” value [1] is reported as “decreased gene expression” and the “gene expression of CTGF” value [1] is reported as “decreased gene expression”.

With `C=C(CC(=O)OC(C)(C)C)C(=O)OC(C)(C)C` [ICL-4, Bis(2-methyl-2-propanyl)-2-methylenesuccinate] the “gene expression of Col1α1” value [1] was “decreased gene expression”, the “gene expression of FN1” value [1] was “decreased gene expression” and the “gene expression of CTGF” value [1] was “decreased gene expression”.

With `C=C(CC(=O)O)C(=O)OC` [ICL-6, 3-(methoxycarbonyl)but-3-enoic acid] the “gene expression of Col1α1” value [1] was “decreased gene expression”, the “gene expression of FN1” value [1] was “decreased gene expression” and the “gene expression of CTGF” value [1] was “decreased gene expression”.

In the case of `C=C(CC(=O)N(C)C)C(=O)O` [ICL-PO, 3-(dimethylcarbamoyl)-2-methvlidenepropanoic acid], the “gene expression of Col1α1” value [1] is reported as “decreased gene expression”, the “gene expression of FN1” value [1] is reported as “decreased gene expression” and the “gene expression of CTGF” value [1] is reported as “decreased gene expression”.

For `C/C(=C/C(=O)O)C(=O)O` [citraconate], the “Extracellular Acidification Rate (ECAR)” value [2] was “concentration dependent reduction in ECAR”.

In the case of `C=C(CC(=O)OC)C(=O)OC` [dimethyl itaconate], the “gene expression of Col1α1” value [1] is reported as “decreased gene expression”, the “gene expression of FN1” value [1] is reported as “decreased gene expression” and the “gene expression of CTGF” value [1] is reported as “decreased gene expression”.

In the case of `COC(=O)CC(=O)OC` [dimethyl malonate, reference compound], the “gene expression of Col1α1” value [1] is reported as “decreased gene expression”, the “gene expression of FN1” value [1] is reported as “decreased gene expression” and the “gene expression of CTGF” value [1] is reported as “decreased gene expression”.

In the case of `C=C(CC(=O)O)C(=O)O` [itaconate, 2-methylidenebutanedioic acid, reference compound], the “proliferation of human lung fibroblasts” value (human lung fibroblasts) is given as “limits”, the “wound healing of human lung fibroblasts” value (human lung fibroblasts) is given as “limits” and the lung fibrosis (lung fibrosis in mice) is given as “ameliorates lung fibrosis”. For the same molecule, the “gene expression of Col1α1” value [1] was “decreased gene expression”, the “gene expression of FN1” value [1] was “decreased gene expression” and the “gene expression of CTGF” value [1] was “decreased gene expression”.

In the case of `C/C(=C\C(=O)O)C(=O)O` [mesaconate], the “Extracellular Acidification Rate (ECAR)” value [2] is reported as “concentration dependent reduction in ECAR”.

With `C=C(CC(=O)[O-])C(=O)[O-].[Na+].[Na+]` [sodium itaconate, reference compound] the “gene expression of Col1α1” value [1] was “decreased gene expression”, the “gene expression of FN1” value [1] was “decreased gene expression” and the “gene expression of CTGF” value [1] was “decreased gene expression”.
